Measured values published in patent publication US8957062B2, “Substituted cyclopropyl compounds, compositions containing such compounds and methods of treatment” (Merck Sharp & Dohme Corp., priority 2011, dated 2015).
Like-named read-outs stand apart in the source and are kept apart here.

Molecular target: T1, human GPR119 (Homo sapiens, UniProt Q8TDV5)
T1 sequence (Q8TDV5 1-308 limits assumed): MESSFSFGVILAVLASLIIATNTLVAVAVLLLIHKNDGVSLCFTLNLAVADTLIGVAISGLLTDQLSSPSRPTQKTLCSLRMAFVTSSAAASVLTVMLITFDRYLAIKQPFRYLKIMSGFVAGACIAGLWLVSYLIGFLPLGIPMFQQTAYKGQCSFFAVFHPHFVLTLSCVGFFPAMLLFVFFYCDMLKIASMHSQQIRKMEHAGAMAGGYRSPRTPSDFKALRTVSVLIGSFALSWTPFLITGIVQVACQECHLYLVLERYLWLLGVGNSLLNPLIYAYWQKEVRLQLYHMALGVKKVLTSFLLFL
Assay: Measurement of GPR119 signaling (cAMP assay) in cells stably transfected with human GPR119
Format: cell-based
Settings: cAMP stimulation

[1] = stated in the example text, human GPR119, read-out: GPR119 Human EC50
[2] = table column, human GPR119, read-out: GPR119 Human EC50

Row | Structure (SMILES) | EC50 [2] [nM] | further results
1 | CCCCc1nnc(N2CCC([C@H]3C[C@H]3CCOc3ccc(S(C)(=O)=O)cn3)CC2)o1 [Example 247, 2-(2-{(1S,2R)-2-[1-(5-butyl-1,3,4-oxidiazol-2-yl)piperidin-4-yl]cyclopropyl}ethoxy)-5-(methylsulfonyl)pyridine] | – | EC50 [1]: 28 nM
2 | CC(C)c1noc(N2CCC([C@H]3C[C@H]3CCOc3ccc(CC(=O)N4CC(F)(F)C4)cc3)CC2)n1 [Example 132] | 2.7 | –
3 | CC(C)c1noc(N2CCC([C@H]3C[C@H]3CCOc3ccc(CC(=O)N4CCn5nc(C(F)(F)F)nc5C4C)c(F)c3)CC2)n1 (some centres unmarked) [Example 178] | 14 | –
4 | CCS(=O)(=O)c1ccc(OCC[C@@H]2C[C@@H]2C2CCN(c3nc(C(C)C)no3)CC2)cc1F [Example 28] | 1.8 | –
5 | CC(C)c1nc(N2CCC([C@H]3C[C@H]3CCOc3ccc(S(C)(=O)=O)cn3)CC2)no1 [Example 234] | 3.5 | –
6 | CC(C)c1noc(N2CCC([C@H]3C[C@H]3CCOc3ccc(Cc4nnco4)c(F)c3)CC2)n1 [Example 256, 4-((1R,2S)-2-{2-[3-fluoro-4-(1,3,4-oxadiazol-2-ylmethyl)phenoxy]ethyl}cyclopropyl)-1-(3-isopropyl-1,2,4-oxadiazol-5-yl)piperidine] | – | EC50 [1]: 2.5 nM
7 | COCc1noc(N2CCC([C@H]3C[C@H]3CCOc3ccc(-n4cnnn4)cn3)CC2)n1 [Example 230] | 1.6 | –
8 | CCOCc1nc(N2CCC([C@H]3C[C@H]3CCOc3ccc(S(C)(=O)=O)cn3)CC2)no1 [Example 246] | 7.9 | –
9 | O=C(OC1CCC1)N1CCC([C@H]2C[C@H]2CCOc2ccc(-n3cnnn3)cc2)CC1 [Example 8] | 1 | –
10 | CC(C)c1noc(N2CCC([C@H]3C[C@H]3CCOc3ccc(CC(=O)N(C)CCn4cncn4)c(F)c3)CC2)n1 [Example 168] | 7.9 | –
11 | CC(C)c1noc(N2CCC([C@H]3C[C@H]3CCOc3ccc(CC(=O)N4CCCCC4)c(F)c3)CC2)n1 [Example 145] | 1.7 | –
12 | COCc1noc(N2CCC([C@H]3C[C@H]3CCOc3cc(F)c(CC(=O)N(C)C)c(F)c3)CC2)n1 [Example 206] | 2.5 | –
13 | CC(C)c1noc(N2CCC([C@H]3C[C@H]3CCOc3ccc(CC(=O)N4CC(C(C)(C)O)C4)c(F)c3)CC2)n1 [Example 149] | 8.2 | –
14 | COCc1noc(N2CCC([C@H]3C[C@H]3CCOc3ccc(S(C)(=O)=O)c(F)c3)CC2)n1 [Example 222] | 0.9 | –
15 | O=C(Cc1ccc(OCC[C@@H]2C[C@@H]2C2CCN(C(=O)OC3CCC3)CC2)cc1F)N1CCC1 [Example 71] | – | EC50 (read-out: GPR119 HumC EC50): 1.4 nM
16 | CC(C)c1noc(N2CCC([C@H]3C[C@H]3CCOc3ccc(CC(=O)N4CCn5c(nnc5C5CC5)C4)c(F)c3)CC2)n1 [Example 176] | 5.7 | –
17 | CS(=O)(=O)c1ccc(OCC[C@@H]2C[C@@H]2C2CCN(c3noc(CCC(F)(F)F)n3)CC2)nc1 [Example 237] | 18 | –
18 | CC(C)c1noc(N2CCC([C@H]3C[C@H]3CCOc3ccc(CC(=O)NCC(F)(F)F)c(F)c3)CC2)n1 [Example 157] | 3.9 | –
19 | CC(C)c1noc(N2CCC([C@H]3C[C@H]3CCOc3ccc(CC(=O)N(C)C4CCOCC4)c(F)c3)CC2)n1 [Example 160] | 4.8 | –

Row | Structure (SMILES) | EC50 [2] [nM] | further results
20 | CC1CC1c1nc(N2CCC([C@H]3C[C@H]3CCOc3ccc(S(C)(=O)=O)cn3)CC2)no1 (some centres unmarked) [Example 239] | 7 | –
21 | CCS(=O)(=O)c1ccc(OCC[C@@H]2C[C@@H]2C2CCN(C(=O)OC3(C)CC3)CC2)cc1 [Example 36] | 14.5 | –
22 | O=C(CCC(F)(F)F)N1CCC([C@H]2C[C@H]2CCOc2ccc(-n3cnnn3)cc2)CC1 [Example 78] | 8.5 | –
23 | COC(=O)N1CCC([C@H]2C[C@H]2CCOc2cc(C#N)nc(C)n2)CC1 [Example 44] | – | EC50 [1]: 34 nM
24 | CS(=O)(=O)c1ccc(OCC[C@@H]2C[C@@H]2C2CCN(C(=O)Cc3cccs3)CC2)nc1 [Example 91] | 36 | –
25 | CC(C)c1noc(N2CCC([C@H]3C[C@H]3CCOc3ccc(CC(=O)NC4CCC(F)(F)C4)c(F)c3)CC2)n1 (some centres unmarked) [Example 191] | 2.8 | –
26 | CC(C)c1noc(N2CCC([C@H]3C[C@H]3CCOc3ccc(CC(=O)N(C)C)c(F)c3)CC2)n1 [Example 143] | 0.94 | –
27 | CC1(OC(=O)N2CCC([C@H]3C[C@H]3CCOc3ccc(CC(=O)N4CCC[C@@H]4C(F)(F)F)c(F)c3)CC2)CC1 [Example 68] | – | EC50 (read-out: GPR119 HumC EC50): 5.1 nM
28 | CC(C)c1nc(N2CCC([C@H]3C[C@H]3CCOc3ccc(CC(=O)N4CC(O)C4)c(F)c3)CC2)no1 [Example 255, 1-[(2-fluoro-4-{2-[(1S,2R)-2-{1-(5-isopropyl-1,2,4-oxadiazol-3-yl)piperidin-4-yl}cyclopropyl]ethoxy}phenyl)acetyl]azetidin-3-ol] | – | EC50 [1]: 1.6 nM
29 | CC(C)c1noc(N2CCC([C@H]3C[C@H]3CCOc3ccc(S(C)(=O)=O)cn3)CC2)n1 [Example 209] | 2 | –
30 | CC(C)c1noc(N2CCC([C@H]3C[C@H]3CCOc3ccc(CC(=O)NCC4CC4)c(F)c3)CC2)n1 [Example 155] | 7.5 | –
31 | CC(C)c1noc(N2CCC([C@H]3C[C@H]3CCOc3ccc(CC(=O)N4CC[C@@H](F)C4)cc3)CC2)n1 [Example 134] | 5.3 | –
32 | CC(C)c1noc(N2CCC([C@H]3C[C@H]3CCOc3ccc(C(=O)C4CC4)c(F)c3)CC2)n1 [Example 117] | 0.6 | –
33 | CC(C)c1noc(N2CCC([C@H]3C[C@H]3CCOc3ccc(CC(=O)N4CCc5nc(C(F)(F)F)sc5C4)c(F)c3)CC2)n1 [Example 184] | 3.5 | –
34 | CS(=O)(=O)c1ccc(OCC[C@@H]2C[C@@H]2C2CCN(c3nnc(C4CCCC4)o3)CC2)nc1 [Example 249] | 32 | –
35 | CC(C)(C)OC(=O)N1CCC([C@H]2C[C@H]2CCOc2cc(F)c(S(C)(=O)=O)c(F)c2)CC1 [Example 38] | 12 | –
36 | CC1(OC(=O)N2CCC([C@H]3C[C@H]3CCOc3ccc(-n4cnnn4)cc3)CC2)CC1 [Example 2, 1-methylcyclopropyl 4-((1R,2S)-2-(2-(4-(1H-tetrazol-1-yl)phenoxy)ethyl)cyclopropyl)piperidine-1-carboxylate] | – | EC50 [1]: 1 nM
37 | COCc1noc(N2CCC([C@H]3C[C@H]3CCOc3ccc(CC(=O)N(C)C)c(C)c3)CC2)n1 [Example 107] | – | EC50 (read-out: GPR119 HumC EC50): 5.2 nM
38 | CC(C)c1noc(N2CCC([C@H]3C[C@H]3CCOc3ccc(CC(=O)N4CCC4)c(Cl)c3)CC2)n1 [Example 103] | – | EC50 (read-out: GPR119 HumC EC50): 0.58 nM

Row | Structure (SMILES) | EC50 [2] [nM] | further results
39 | CC(C)c1noc(N2CCC([C@H]3C[C@H]3CCOc3cc(F)c(CC(=O)N4CCOCC4)c(F)c3)CC2)n1 [Example 114] | – | EC50 (read-out: GPR119 HumC EC50): 0.19 nM
40 | CS(=O)(=O)c1ccc(OCC[C@@H]2C[C@@H]2C2CCN(C(=O)OCC3CCC3)CC2)nc1 [Example 22] | 5 | –
41 | CC(C)c1noc(N2CCC([C@H]3C[C@H]3CCOc3ccc(S(C)(=O)=O)cc3F)CC2)n1 [Example 123] | 3.8 | –
42 | Cc1nc2c(s1)CN(C(=O)Cc1ccc(OCC[C@@H]3C[C@@H]3C3CCN(c4nc(C(C)C)no4)CC3)cc1F)CC2 [Example 179] | 2.6 | –
43 | CCS(=O)(=O)c1ccc(OCC[C@@H]2C[C@@H]2C2CCN(C(=O)OC3(C)CC3)CC2)cc1F [Example 42] | 2.5 | –
44 | CC1(OC(=O)N2CCC([C@H]3C[C@H]3CCOc3ccc(CC(=O)N4CCC4)c(C#N)c3)CC2)CC1 [Example 70] | – | EC50 (read-out: GPR119 HumC EC50): 2.7 nM
45 | Cc1nc(C#N)cc(OCC[C@@H]2C[C@@H]2C2CCN(C(=O)CCC(F)(F)F)CC2)n1 [Example 96] | 43 | –
46 | COCc1noc(N2CCC([C@H]3C[C@H]3CCOc3ccc(CC(=O)N4CCC4)c(Cl)c3)CC2)n1 [Example 104] | – | EC50 (read-out: GPR119 HumC EC50): 2.6 nM
47 | CC(C)(C)OC(=O)N1CCC([C@H]2C[C@H]2CCOc2ccc(-n3cnnn3)cc2)CC1 [Example 5] | 7 | –
48 | CC(C)c1noc(N2CCC([C@H]3C[C@H]3CCOc3ccc(CC(=O)N(C)Cc4ccon4)c(F)c3)CC2)n1 [Example 164] | 1.7 | –
49 | CCS(=O)(=O)c1ccc(OCC[C@H]2C[C@H]2C2CCN(c3nc(COC)no3)CC2)cc1F (stereo in doubt) [Example 15, 4-((1S,2R)-2-{2-[4-(ethylsulfonyl)-3-fluorophenoxy]ethyl}cyclopropyl)-1-[3-(methoxymethyl)-1,2,4-oxadiazol-5-yl]piperidine] | – | EC50 [1]: 8.4 nM
50 | CC(C)Cc1nc(N2CCC([C@H]3C[C@H]3CCOc3ccc(S(C)(=O)=O)cn3)CC2)no1 [Example 235] | 6.5 | –
51 | COCc1noc(N2CCC([C@H]3C[C@H]3CCOc3ncc(-n4cnnn4)cc3C)CC2)n1 [Example 226] | 2.3 | –
52 | CC(C)(C)OC(=O)N1CCC([C@H]2C[C@H]2CCOc2ccc(S(C)(=O)=O)cn2)CC1 [Example 17] | 5.8 | –
53 | CC(C)OC(=O)N1CCC([C@H]2C[C@H]2CCOc2cc(F)c(S(C)(=O)=O)c(F)c2)CC1 [Example 39] | 6.6 | –
54 | CS(=O)(=O)c1ccc(OCC[C@@H]2C[C@@H]2C2CCN(C(=O)CC3CCCC3)CC2)cc1F [Example 93] | 4.6 | –
55 | O=C(OCc1ccccc1)N1CCC([C@H]2C[C@H]2CCOc2ccc(-n3cnnn3)cc2)CC1 [Example 12] | 11.8 | –
56 | CC(C)c1noc(N2CCC([C@H]3C[C@H]3CCOc3ccc(CC(=O)N4CC(F)C4)c(F)c3)CC2)n1 [Example 100, 4-[(1R,2S)-2-(2-{3-fluoro-4-[2-(3-fluoroazetidin-1-yl)-2-oxoethyl]phenoxy}ethyl)cyclopropyl]-1-(3-isopropyl-1,2,4-oxadiazol-5-yl)piperidine] | – | EC50 [1]: 0.4 nM
